Test results reported in patent US20230240953A1, “AN ANTIMICROBIAL COMPOSITION, PROCESS FOR PREPARING THE SAME AND METHOD OF USE THEREOF” (ISP INVESTMENTS LLC, priority 2020, published 2023).
≈ marks a conversion by molar mass, not a printed value.

Key:
Format in all cases: cell-based
[1] = test system: Aspergillus brasiliensis 16404; experiment: Minimal inhibitory concentration (MIC), microplate broth dilution; settings: YMB, 10^5 cfu/ml, 4-5 days at 28° C., read-out: Minimal Inhibitory Concentrations (MICs) mean values, A. brasiliensis
Method: (§1) Briefly, each active was dissolved and then serially diluted in DMSO using a 96-well dilution microplate. Automated liquid handler was then used to stamp multiple assay plates out of this dilution plate. The appropriate growth medium containing a desired microorganism was then added to each well of the plate. For bacterial strains, Trypticase Soy Broth (TSB) was used with the final cell density of the microorganisms, in each well, being 10^6 cfu/ml. For fungal strains, Yeast Malt Broth (YMB) was used with the final density of each microorganism being 10^5 cfu/ml. Bacterial plates were incubated for 48 hours at 35° C. and fungal plates were incubated for 4-5 days at 28° C. prior to being evaluated. The lowest concentration of each compound to inhibit any visible growth was defined as minimum inhibitory concentration (MIC). In some cases, the highest tested concentration of the active was limited by its solubility in water. Whenever MIC was greater than the highest tested concentration, it was reported as being equal to, or greater than (>) the previous hypothetical dilution.

[2] = test system: Burkholderia cepacia 25416; experiment: as above; settings: TSB, 10^6 cfu/ml, 48 hours at 35° C., read-out: Minimal Inhibitory Concentrations (MICs) mean values, B. cepacia
Method: as §1

Candida albicans 10231 = experiment: as above; settings: YMB, 10^5 cfu/ml, 4-5 days at 28° C., read-out: Minimal Inhibitory Concentrations (MICs) mean values, C. albicans
Method: as §1

Escherichia coli 8739 = experiment: as above; settings: TSB, 10^6 cfu/ml, 48 hours at 35° C., read-out: Minimal Inhibitory Concentrations (MICs) mean values, E. coli
Method: as §1

[3] = test system: Pseudomonas aeruginosa 9027; experiment: as above; settings: TSB, 10^6 cfu/ml, 48 hours at 35° C., read-out: Minimal Inhibitory Concentrations (MICs) mean values, P. aeruginosa
Method: as §1

[4] = test system: Staphylococcus aureus 6538; experiment: as above; settings: TSB, 10^6 cfu/ml, 48 hours at 35° C., read-out: Minimal Inhibitory Concentrations (MICs) mean values, S. aureus
Method: as §1

[5] = test system: Aspergillus brasiliensis 16404; experiment: Checkerboard microplate synergy assay, compound A = HPB; settings: Aspergillus brasiliensis, 16404, HPB alone, read-out: HPB (QA): MIC of HPB acting alone
Method: (§2) The synergistic antimicrobial effect was determined using a commonly accepted method described by Kull A. C, Eisman, P. C. Sylwestrowicz, H. D. and Mayer, R. L. 1961. Applied Microbiology, 9:538-541
(§3) Briefly, the standard checkerboard approach was used to make all the dilutions. HPB (compound A) solution was prepared and then serially diluted in DMSO using the 96-well dilution plate. Automated liquid handler was then used to stamp multiple assay plates using this dilution plate. Each well of the assay plate was then supplemented with a predetermined concentration of the second antimicrobial (compound B). The final concentration of DMSO was kept constant across the plate for each assay, not exceeding 3% (w/w).
To evaluate antifungal activity of the actives, freshly prepared A. brasiliensis spores were harvested and resuspended in Yeast and Malt Broth (YMB). The spore suspension was then added to the appropriate plates with the final density being 10^5 cfu/ml.
(§4) To evaluate antibacterial activity of the actives, freshly prepared S. aureus and B. cepacia cells were harvested and resuspended in Trypticase Soy Broth (TSB). The cell suspension was then added to the wells of the appropriate plates with the final cell density being 10^6 cfu/ml. Fungal plates were incubated at 28° C. for 4-5 days, prior to being evaluated. Bacterial plates were incubated for 48 hours at 35° C. prior to being evaluated.
(§5) Synergy Index (SI)=Qa/QA+Qb/QB • Qa is the MIC of compound A (HPB) in ppm, when compound A is being used in combination with compound B • QA is the MIC of compound A (HPB) in ppm, acting alone • Qb is the MIC of compound B in ppm, when the compound B is being used in combination with compound A • QB is the MIC of compound B in ppm, acting alone Each ratio Qa/QA and Qb/QB is sometimes referred to as Fractional Inhibitory Concentrations (FICs) of compounds A and B, respectively, when these two compounds are being used in combination with one another. The sum of FICs constitute the Synergy Index (SI). The synergistic effect is indicated if the Synergy Index is below one (SI<1). An additive effect is indicated if the Synergy Index is equal to one (SI=1). An antagonistic effect is indicated if synergy index is greater than one (SI>1). The lower the SI index the greater the synergy.

[6] = test system: Burkholderia cepacia 25416; experiment: as above; settings: Burkholderia cepacia, 25416; B. cepacia; HPB alone; read-out: HPB (QA): MIC of HPB acting alone
Method: as §2, §3, §4, §5

[7] = test system: Staphylococcus aureus 6538; experiment: as above; settings: Staphylococcus aureus, 6538; S. aureus; HPB alone; read-out: HPB (QA): MIC of HPB acting alone
Method: as §2, §3, §4, §5

For `CC(=O)/C=C/c1ccc(O)cc1` [4-Hydroxybenzylideneacetone, (E)-4-(4-hydroxyphenyl)but-3-en-2-one], the MIC [1] was 1000 µg/mL (≈ 6.17 mM), the MIC [2] was 1000 µg/mL (≈ 6.17 mM) and the MIC (Candida albicans 10231) was 500 µg/mL (≈ 3.08 mM). It also gave an MIC (Escherichia coli 8739) of 2000 µg/mL (≈ 12.3 mM), an MIC [3] of 4000 µg/mL (≈ 24.7 mM) and an MIC [4] of 500 µg/mL (≈ 3.08 mM).
`COc1ccc(CCC(C)=O)cc1` [Raspberry ketone methyl ether, 4-(4-methoxyphenyl)butan-2-one] showed an MIC [1] of 1000 µg/mL (≈ 5.61 mM), an MIC [2] of 1000 µg/mL (≈ 5.61 mM) and an MIC (Candida albicans 10231) of 2000 µg/mL (≈ 11.2 mM). It also gave an MIC (Escherichia coli 8739) of 2000 µg/mL (≈ 11.2 mM), an MIC [3] of 4000 µg/mL (≈ 22.4 mM) and an MIC [4] of 28000 µg/mL (≈ 157 mM).
Compound `CC(=O)CCc1ccc(O)cc1` [Raspberry ketone, 4-(4-hydroxyphenyl) butan-2-one] has an MIC [1] of 4000 µg/mL (≈ 24.4 mM), an MIC [2] of 2000 µg/mL (≈ 12.2 mM) and an MIC (Candida albicans 10231) of 4000 µg/mL (≈ 24.4 mM). The MIC (Escherichia coli 8739) was 4000 µg/mL (≈ 24.4 mM), the MIC [3] was 4000 µg/mL (≈ 24.4 mM) and the MIC [4] was 28000 µg/mL (≈ 171 mM). For the same compound, the MIC [5] was 4000 µg/mL, the MIC [6] was 2000 µg/mL and the MIC [7] was no less than 8000 µg/mL.
